Data reported in patent US7585861B2, “HIV inhibiting 1,2,4-triazines” (Janssen Pharmaceutica, N.V., priority 2003, dated 2009).

Assays:
Format in all cases: cell-based
mock-infected MT-4 cells [1] = test: Test B: cytotoxicity in mock-infected MT-4 cells engineered with GFP under a constitutional promoter
Procedure: An […] T4-cell line, MT-4, which was previously shown (Koyanagi et al., Int. J. Cancer, 36, 445-451, 1985) to be highly susceptible to and permissive for HIV infection, served as the target cell line. In these cells, engineered with GFP (and an HIV-specific promotor), ongoing HIV-infection was measured fluorometrically. Cytotoxicity is measured in the same cells, but engineered with GFP under a constitutional promoter. The infection (or inhibition thereof) of HIV infected cells and the flourescence of mock-infected cells is assessed by the fluorescent GFP signal generated by the two above mentioned cell lines.

HIV = test: Test A: inhibition of the HIV-induced cytopathic effect in MT-4 cells (MTT); settings: Test A; MT-4 cells, MTT; pIC50 = −log IC50, dose achieving 50% protection
Procedure: (§1) A rapid, sensitive and automated assay procedure was used for the in vitro evaluation of anti-HIV agents. An […] T4-cell line, MT-4, which was previously shown (Koyanagi et al., Int. J. Cancer, 36, 445-451, 1985) to be highly susceptible to and permissive for HIV infection, served as the target cell line. Inhibition of the HIV-induced cytopathic effect was used as the end point. The viability of both HIV- and mock-infected cells was assessed spectrophotometrically via the in situ reduction of 3-(4,5-dimethylthiazol-2-yl)-2,5-diphenyltetrazolium bromide (MTT). […] The percent protection achieved by the compound in HTV-infected cells was calculated by the following formula:
(§2) [formula] whereby (ODT)HIV is the optical density measured with a given concentration of the test compound in HIV-infected cells; (ODC)HIV is the optical density measured for the control unteated HIV-infected cells; (ODC)MOCK is the optical density measured for the control untreated mock-infected cells; all optical density values were determined at 540 nm. […] The ratio of CC50 to IC50 was defined as the selectivity index (SI).

mock-infected MT-4 cells [2] = test: Test A: cytotoxicity in mock-infected MT-4 cells (MTT)
Procedure: as §1, §2

[3] = Test A, mock-infected MT-4 cells, MTT, 50% cytotoxic concentration (CC50 in M)

SMILES | PCC50 (mock-infected MT-4 cells [1]) | pIC50 (M) (HIV) | PCC50 (mock-infected MT-4 cells [2]) | PCC50 (mock-infected MT-4 cells [2]; [3])
N#CC=Cc1cc(Br)c(Nc2nnc(Cl)c(Nc3ccc(C#N)cc3)n2)c(Br)c1 (mixture of isomers) [Compound 78] | 5.1 |  |  | 
Cc1cc(CCC#N)cc(C)c1Nc1nc(Nc2ccc(C#N)cc2)nnc1C [Compound 2] |  | 9.0 M | <4.0 | 
Cc1cc(C#N)cc(C)c1Nc1nc(Nc2ccc(C#N)cc2)nnc1C [Compound 5] |  | 8.7 M | <4.0 | 
Cc1cc(C)c(Nc2cnnc(Nc3ccc(C#N)cc3)n2)c(C)c1 [Compound 7] |  | 9.3 M |  | 5.5
Cc1cc(/C=C/C#N)cc(C)c1Nc1cnnc(Nc2ccc(C#N)cc2)n1 [Compound 8] |  | 7.3 M | <4.0 | 
Cc1cc(CCC#N)cc(C)c1Nc1cnnc(Nc2ccc(C#N)cc2)n1 [Compound 9] |  | 7.8 M | <4.0 | 
N#Cc1ccc(Nc2nncc(Nc3c(Cl)cc(C#N)cc3Cl)n2)cc1 [Compound 10] |  | 7.6 M |  | <4.5
COc1cc(C)c(Nc2nc(Nc3ccc(C#N)cc3)nnc2C)c(C)c1 [Compound 11] |  | 9.2 M | 5.5 | 
Cc1cc(C)c(Nc2nc(Nc3ccc(C#N)cc3)nnc2C)c(C)c1 [Compound 12] |  | 8.9 M |  | 
Cc1cc(/C=C/C#N)cc(C)c1Nc1nc(Nc2ccc(C#N)cc2)nnc1C [Compound 13] |  | 8.2 M | <4.0 | 
COc1cc(C)c(Nc2cnnc(Nc3ccc(C#N)cc3)n2)c(C)c1 [Compound 14] |  | 8.8 M | <4.0 | 
Cc1cc(Br)cc(C)c1Nc1cnnc(Nc2ccc(C#N)cc2)n1 [Compound 15] |  | 8.8 M | <4.0 | 
Cc1cc(Br)cc(C)c1Nc1nc(Nc2ccc(C#N)cc2)nnc1C [Compound 16] |  | 8.7 M | 4.2 | 
Cc1cc(C(C)(C)C)cc(C)c1Nc1cnnc(Nc2ccc(C#N)cc2)n1 [Compound 17] |  | 8.0 M | <4.0 | 
Cc1cc(C(C)(C)C)cc(C)c1Nc1nc(Nc2ccc(C#N)cc2)nnc1C [Compound 18] |  | 8.1 M | <4.0 | 
Cc1cc(/C=C\C#N)cc(C)c1Nc1nc(Nc2ccc(C#N)cc2)nnc1C [Compound 19] |  | 9.0 M | 4.6 | 
Cc1cc(CC#N)cc(C)c1Nc1nc(Nc2ccc(C#N)cc2)nnc1C [Compound 20] |  | 8.6 M | <4.6 | 
Cc1cc(/C=C/C(=O)N(C)C)cc(C)c1Nc1nc(Nc2ccc(C#N)cc2)nnc1C [Compound 22] |  | 7.1 M | <4.6 | 
COc1cc(C)cc(C)c1Nc1nc(Nc2ccc(C#N)cc2)nnc1C [Compound 23] |  | 8.9 M | 6.4 | 
Cc1cc(CC#N)cc(C)c1Nc1cnnc(Nc2ccc(C#N)cc2)n1 [Compound 24] |  | 8.8 M | <4.6 | 
COc1cc(OC)c(Nc2nc(Nc3ccc(C#N)cc3)nnc2C)c(OC)c1 [Compound 25] |  | 8.6 M | 4.4 | 
Cc1cc(C)c(Nc2nc(Nc3ccc(C#N)cc3)nnc2C)c(CC#N)c1 [Compound 27] |  | 8.3 M | <4.0 | 
Cc1cc(C(=O)N(C)C)cc(C)c1Nc1nc(Nc2ccc(C#N)cc2)nnc1C [Compound 31] |  | 7.5 M | <4.0 | 
COc1cc(/C=C/C#N)cc(OC)c1Nc1nc(Nc2ccc(C#N)cc2)nnc1C [Compound 33] |  | 8.6 M | 5.4 | 
Cc1nnc(Nc2ccc(C#N)cc2)nc1Nc1c(Cl)cc(/C=C/C#N)cc1Cl [Compound 34] |  | 8.6 M | 5.0 | 
CCOc1cc(C)c(Nc2nc(Nc3ccc(C#N)cc3)nnc2C)c(C)c1 [Compound 35] |  | 8.2 M | <4.6 | 
CNC(=O)c1cc(C)c(Nc2cnnc(Nc3ccc(C#N)cc3)n2)c(C)c1 [Compound 37] |  | 7.0 M | 4.3 | 
Cc1cc(OCC#N)cc(C)c1Nc1nc(Nc2ccc(C#N)cc2)nnc1C [Compound 38] |  | 8.9 M | 4.7 | 

SMILES | PCC50 (mock-infected MT-4 cells [1]) | pIC50 (M) (HIV) | PCC50 (mock-infected MT-4 cells [2]) | PCC50 (mock-infected MT-4 cells [2]; [3])
Cc1cc(/C=C/C(=O)N2CCCC2)cc(C)c1Nc1nc(Nc2ccc(C#N)cc2)nnc1C [Compound 39] |  | 7.2 M | <4.0 | 
COc1cc(CCC#N)cc(OC)c1Nc1nc(Nc2ccc(C#N)cc2)nnc1C [Compound 40] |  | 8.6 M | 5.0 | 
Cc1cc(OCC#N)cc(C)c1Nc1cnnc(Nc2ccc(C#N)cc2)n1 [Compound 41] |  | 7.6 M | <4.6 | 
CC(C#N)=Cc1cc(C)c(Nc2nc(Nc3ccc(C#N)cc3)nnc2C)c(C)c1 [Compound 42] |  | 9.1 M | 4.8 | 
CCOc1cc(C)c(Nc2cnnc(Nc3ccc(C#N)cc3)n2)c(C)c1 [Compound 43] |  | 8.1 M | <4.6 | 
Cc1cc(C)c(Nc2nnc(Cl)c(Nc3ccc(C#N)cc3)n2)c(C)c1 [Compound 45] |  | 7.6 M | <4.6 | 
Cc1cc(C)c(Sc2nc(Nc3ccc(C#N)cc3)nnc2Cl)c(C)c1 [Compound 46] |  | 7.9 M |  | <4.6
Cc1cc(/C=C/C(=O)N2CCOCC2)cc(C)c1Oc1nc(Nc2ccc(C#N)cc2)nnc1C [Compound 47] |  | 8.1 M | <4.6 | 
Cc1cc(/C=C/C(=O)N(C)C)cc(C)c1Oc1nc(Nc2ccc(C#N)cc2)nnc1C [Compound 50] | 4.7 |  |  | 
CCNC(=O)c1cc(C)c(Nc2cnnc(Nc3ccc(C#N)cc3)n2)c(C)c1 [Compound 51] | 5.1 |  |  | 
Cc1cc(C(=O)N(C)C)cc(C)c1Nc1cnnc(Nc2ccc(C#N)cc2)n1 [Compound 52] | <4.6 |  |  | 
Cc1cc(C=CC#N)cc(C)c1Nc1nnc(Cl)c(Nc2ccc(C#N)cc2)n1 [Compound 53] | 4.9 |  |  | 
Cc1cc(/C=C/C#N)cc(C)c1Nc1nc(Nc2ccc(C#N)cc2)nnc1Cl [Compound 54] | 4.9 |  |  | 
CNC(=O)/C=C/c1cc(C)c(Oc2nc(Nc3ccc(C#N)cc3)nnc2C)c(C)c1 [Compound 56] | 4.8 |  |  | 
CCN(C)C(=O)/C=C/c1cc(C)c(Oc2nc(Nc3ccc(C#N)cc3)nnc2C)c(C)c1 [Compound 57] | 4.7 |  |  | 
COc1cc(/C=C/C#N)cc(C)c1Nc1nc(Nc2ccc(C#N)cc2)nnc1C [Compound 60] | 6.0 |  |  | 
C/C(=C\C#N)c1cc(Cl)c(Nc2nc(Nc3ccc(C#N)cc3)nnc2C)c(Cl)c1 [Compound 61] | 5.4 |  |  | 
N#Cc1ccc(Nc2cnnc(Nc3c(F)cc(I)cc3F)n2)cc1 [Compound 63] | 4.9 |  |  | 
COc1cc(C)c(Nc2nnc(Cl)c(Nc3ccc(C#N)cc3)n2)c(C)c1 [Compound 64] | 4.7 |  |  | 
Cc1cc(/C=C/C#N)cc(Cl)c1Nc1nc(Nc2ccc(C#N)cc2)nnc1C [Compound 65] | 5.3 |  |  | 
COc1cc(C(C)=CC#N)cc(C)c1Nc1nc(Nc2ccc(C#N)cc2)nnc1C [Compound 66] | 5.7 |  |  | 
COc1cc(/C(C)=C/C#N)cc(OC)c1Nc1nc(Nc2ccc(C#N)cc2)nnc1C [Compound 67] | 4.9 |  |  | 
COc1cc(/C(C)=C/C#N)cc(Cl)c1Nc1nc(Nc2ccc(C#N)cc2)nnc1C [Compound 68] | 5.2 |  |  | 
C/C(=C\C#N)c1cc(C)c(Nc2nc(Nc3ccc(C#N)cc3)nnc2C)c(Cl)c1 [Compound 69] | 5.7 |  |  | 
COc1cc(/C=C/C#N)cc(Cl)c1Nc1nc(Nc2ccc(C#N)cc2)nnc1C [Compound 70] | 6.2 |  |  | 
COc1cc(C=C(C)C#N)cc(C)c1Nc1nc(Nc2ccc(C#N)cc2)nnc1C [Compound 71] | 5.1 |  |  | 
N#CCCc1cc(Br)c(Nc2nnc(Cl)c(Nc3ccc(C#N)cc3)n2)c(Br)c1 [Compound 73] | <4.6 |  |  | 
